Among the data in PubChem BioAssay (NCI) are TGI values, retold here.

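Compound exposure: 48 hours, 5 concentrations, 96-well plates. TGI: total growth inhibition.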

Among the test systems are BT-549 breast; HCT-116 colon; HOP-62 NSCLC; HOP-92 NSCLC; HT29 colon; MDA-MB-435; NCI-H23 lung; OVCAR-5 ovarian; OVCAR-8 ovarian; RPMI-8226 leukemia; RXF 393 renal; SF-268 CNS; SF-295 CNS; SK-MEL-2 melanoma; SK-MEL-28 melanoma; SN12C renal; SR leukemia; SNB-75 CNS; UACC-62 melanoma.
Holding throughout (assay): growth of human tumour cells (NCI), 48 h

Regarding `COC(=O)c1c(O)ccc2c1c1c(n2Cc2ccccc2OC)C(=O)c2ccccc2C1=O`, the TGI with BT-549 breast stood at 32.1 µM; with HCT-116 colon it was 16.6 µM; in the test on HOP-62 NSCLC it was 27.8 µM; in the test with HOP-92 NSCLC, 22.4 µM; in the test with HT29 colon, 21.3 µM; in the test on MDA-MB-435, 27.7 µM. The TGI is 34.8 µM in the test on NCI-H23 lung; 40.1 µM in the test with OVCAR-5 ovarian; 27.4 µM in the test on OVCAR-8 ovarian; 10.5 µM with RPMI-8226 leukemia; 30.7 µM in the test on RXF 393 renal; 29.7 µM with SF-268 CNS. Also, the TGI worked out at 63.6 µM with SF-295 CNS; 32.5 µM in the test on SK-MEL-2 melanoma; 36.1 µM in the test with SK-MEL-28 melanoma; 25.4 µM with SN12C renal; 3.18 µM in the test with SR leukemia.

For the molecule `Cc1nc2cc3ccccc3cc2[nH]c1=O`, the TGI in the test on BT-549 breast was above 100 µM; with HCT-116 colon, above 100 µM; with HOP-62 NSCLC it was above 100 µM; with HOP-92 NSCLC, 80.2 µM; in the test on HT29 colon, above 100 µM; with MDA-MB-435, above 100 µM. Moreover, the TGI in the test on NCI-H23 lung, in the test on OVCAR-5 ovarian, with OVCAR-8 ovarian, with RXF 393 renal, in the test with SF-268 CNS and with SF-295 CNS was above 100 µM throughout. Moreover, the TGI in the test with SK-MEL-2 melanoma was above 100 µM; in the test with SK-MEL-28 melanoma, above 100 µM; with SN12C renal it was above 100 µM; in the test on SNB-75 CNS, 87 µM; in the test on SR leukemia, above 100 µM; in the test with UACC-62 melanoma it was above 100 µM.

Take `O=c1[nH][nH]c(=O)n1/N=C/c1ccccc1`: the TGI in the test on BT-549 breast, with HCT-116 colon, with HOP-62 NSCLC, in the test on HOP-92 NSCLC, in the test with HT29 colon and with MDA-MB-435 was above 100 µM in each case. Further, the TGI in the test on NCI-H23 lung, in the test on OVCAR-5 ovarian, with OVCAR-8 ovarian, with RPMI-8226 leukemia, with SF-268 CNS and with SF-295 CNS was above 100 µM throughout. Besides, the TGI in the test with SK-MEL-2 melanoma, in the test on SK-MEL-28 melanoma, with SN12C renal, in the test with SNB-75 CNS, in the test with SR leukemia and in the test on UACC-62 melanoma was above 100 µM each time.

Turning to `Cc1ccc(S(=O)(=O)N/N=C2\CCC3(O)CC2(C)CCC2C3CC2(C)C)cc1` (configuration not stated), the TGI in the test on BT-549 breast, in the test with HCT-116 colon, with HOP-62 NSCLC, in the test on HOP-92 NSCLC, with HT29 colon and with MDA-MB-435 was above 100 µM each time. Moreover, the TGI in the test on NCI-H23 lung, in the test with OVCAR-5 ovarian, in the test with OVCAR-8 ovarian, with RPMI-8226 leukemia, in the test on RXF 393 renal and with SF-268 CNS was above 100 µM in each case. The TGI with SF-295 CNS is above 100 µM; in the test with SK-MEL-2 melanoma it was 87.1 µM; in the test on SK-MEL-28 melanoma it was above 100 µM; in the test with SN12C renal it was above 100 µM; in the test with SR leukemia it was above 100 µM; with UACC-62 melanoma, above 100 µM.

`Cc1ccc(S(=O)(=O)N/N=C2\CCCCCCCCCCC2CN(C)C)cc1` (configuration not stated): the TGI in the test with BT-549 breast came to 32.1 µM; in the test on HCT-116 colon, 28.2 µM; in the test with HOP-62 NSCLC, 33.8 µM; with HOP-92 NSCLC it was 24.7 µM; in the test with HT29 colon, 29.5 µM; in the test on MDA-MB-435, 28 µM. For the same molecule, the TGI in the test on NCI-H23 lung is 55.8 µM; in the test on OVCAR-5 ovarian, 30.9 µM; in the test with OVCAR-8 ovarian it was 30.7 µM; with RPMI-8226 leukemia it was above 100 µM; in the test with RXF 393 renal, 26.6 µM; in the test with SF-268 CNS it was 54.3 µM. The TGI in the test on SF-295 CNS was 30.9 µM; in the test on SK-MEL-2 melanoma, 22.8 µM; in the test with SK-MEL-28 melanoma, 28.2 µM; with SN12C renal it was 44.4 µM; in the test on SR leukemia, above 100 µM; with UACC-62 melanoma, 32.3 µM.

Turning to `Nc1cc2ncnn2c(SCC(=O)N/N=C/C(Br)=C\c2ccccc2)n1`, the TGI in the test with BT-549 breast is 44.1 µM; in the test on HCT-116 colon, above 100 µM; with HOP-62 NSCLC it was 87.2 µM; in the test on HT29 colon, 28 µM; in the test with MDA-MB-435, 30.9 µM; in the test with NCI-H23 lung it was 33.1 µM. Further, the TGI in the test with OVCAR-5 ovarian was 55.2 µM; in the test with OVCAR-8 ovarian, 52.3 µM; in the test on RPMI-8226 leukemia, 50.1 µM; in the test with RXF 393 renal it was 42.2 µM; in the test on SF-295 CNS it was 67.7 µM; with SK-MEL-28 melanoma it was 37.6 µM. In addition, the TGI was 48.4 µM in the test on SN12C renal, above 100 µM in the test on SNB-75 CNS and above 100 µM with SR leukemia.

`COC1=C2CC(C)CC(OC)C(OC(=O)CN)[C@H](C)/C=C(\C)C(OC(N)=O)C(OC)/C=C\C=C(/C)C(=O)NC(=CC1=O)C2=O` (some centres not stated): the TGI was 14.2 µM in the test on BT-549 breast; 3.45 µM with HCT-116 colon; 6.02 µM in the test on HOP-62 NSCLC; 1.27 µM with HOP-92 NSCLC; 11.2 µM in the test on HT29 colon; 2.89 µM with MDA-MB-435. The TGI in the test with NCI-H23 lung is 1.77 µM; in the test with OVCAR-5 ovarian it was 13.8 µM; in the test with OVCAR-8 ovarian it was 4.24 µM; in the test with RPMI-8226 leukemia it was above 100 µM; in the test with RXF 393 renal, 8.21 µM; with SF-268 CNS it was 16.4 µM. In addition, the TGI in the test on SF-295 CNS worked out at 17.5 µM; in the test on SK-MEL-2 melanoma, 14.7 µM; in the test with SK-MEL-28 melanoma, 1.75 µM; with SN12C renal it was 4.91 µM; in the test with SR leukemia it was 1.98 µM; in the test with UACC-62 melanoma, 1.78 µM.

As for `C=CCOCn1cc(F)c(=O)[nH]c1=O`, the TGI with BT-549 breast, with HCT-116 colon, in the test on HOP-62 NSCLC, in the test on HT29 colon, with MDA-MB-435 and with NCI-H23 lung was above 100 µM in each case. For the same molecule, the TGI in the test on OVCAR-8 ovarian, in the test with RPMI-8226 leukemia, with SF-268 CNS, in the test on SF-295 CNS, in the test with SK-MEL-28 melanoma and in the test with SN12C renal was above 100 µM each time. In addition, the TGI in the test with SNB-75 CNS, in the test with SR leukemia and with UACC-62 melanoma was above 100 µM in each case.
